biological target: T1, GCase (Homo sapiens, UniProt P04062); assay: activation of GCase in a live cell PFB assay in HELA cells; format: cell-based; details: activation of GCase, EC50 ranges
T1 construct: endogenous in cells; host or cells: HeLa cells
T1 sequence (P04062 40-536): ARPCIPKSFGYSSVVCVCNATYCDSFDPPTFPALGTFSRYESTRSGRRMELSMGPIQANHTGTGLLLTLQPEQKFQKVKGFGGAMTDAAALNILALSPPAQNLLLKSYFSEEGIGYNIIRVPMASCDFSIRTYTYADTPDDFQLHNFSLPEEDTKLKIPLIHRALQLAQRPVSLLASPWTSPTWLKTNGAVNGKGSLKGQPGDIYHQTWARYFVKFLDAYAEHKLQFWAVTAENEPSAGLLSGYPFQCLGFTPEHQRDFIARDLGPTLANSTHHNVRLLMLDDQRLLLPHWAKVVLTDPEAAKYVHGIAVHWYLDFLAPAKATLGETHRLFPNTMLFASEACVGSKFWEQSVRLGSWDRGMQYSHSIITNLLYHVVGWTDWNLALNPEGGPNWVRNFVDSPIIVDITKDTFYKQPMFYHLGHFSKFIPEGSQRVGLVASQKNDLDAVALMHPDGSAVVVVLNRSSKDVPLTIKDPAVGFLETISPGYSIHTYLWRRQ
Description: Exemplary compounds were evaluated for activation of GCase in a live cell PFB assay in HELA cells (essentially as described in Ysselstein et al., “LRRK2 kinase activity regulates lysosomal glucocerebrosidase in neurons derived from Parkinson's disease patients” Nature Communications (2019) 10:5570). […] EC50 ranges: A: <10 μM; B: >10-50 μM; C: >50-100 μM; D: >100 μM.

| SMILES | EC50 |
| --- | --- |
| FC(F)Cn1ncc2ncc(N3CCCC4(CC(Oc5ccc(C(F)(F)F)cn5)C4)C3)nc21 (centres unmarked) [Compound 28, 6-[1-(2,2-difluoroethyl)-1H-pyrazolo[3,4-b]pyrazin-6-yl]-2-{[5-(trifluoromethyl)pyridin-2-yl]oxy}-6-azaspiro[3.5]nonane] | 10 to 50 µM |
| FC(F)Cn1ncc2ncc(N3CCCC4(CC(Oc5cc(C(F)(F)F)ccn5)C4)C3)nc21 (centres unmarked) [Compound 29, 6-[1-(2,2-difluoroethyl)-1H-pyrazolo[3,4-b]pyrazin-6-yl]-2-{[4-(trifluoromethyl)pyridin-2-yl]oxy}-6-azaspiro[3.5]nonane] | 10 to 50 µM |
| Fc1ccc(F)c(OC2CC3(CCCN(c4cnc5cnn(CC(F)(F)F)c5n4)C3)C2)c1 (centres unmarked) [Compound 30, 2-(2,5-difluorophenoxy)-6-[1-(2,2,2-trifluoroethyl)-1H-pyrazolo[3,4-b]pyrazin-6-yl]-6-azaspiro[3.5]nonane] | 10 to 50 µM |
| Fc1cc(F)cc(OC2CC3(CCCN(c4cnc5cnn(CC(F)F)c5n4)C3)C2)c1 (centres unmarked) [Compound 31, 6-[1-(2,2-difluoroethyl)-1H-pyrazolo[3,4-b]pyrazin-6-yl]-2-(3,5-difluorophenoxy)-6-azaspiro[3.5]nonane] | 10 to 50 µM |
| FC(F)Cn1ncc2ncc(N3CCCC4(CC(Oc5ncccc5C(F)(F)F)C4)C3)nc21 (centres unmarked) [Compound 32, 6-[1-(2,2-difluoroethyl)-1H-pyrazolo[3,4-b]pyrazin-6-yl]-2-{[3-(trifluoromethyl)pyridin-2-yl]oxy}-6-azaspiro[3.5]nonane] | 10 to 50 µM |
| Fc1cc(F)cc(OC2CC3(CCCN(c4cnc5cnn(CC(F)(F)F)c5n4)C3)C2)c1 (centres unmarked) [Compound 33, 2-(3,5-difluorophenoxy)-6-[1-(2,2,2-trifluoroethyl)-1H-pyrazolo[3,4-b]pyrazin-6-yl]-6-azaspiro[3.5]nonane] | 10 to 50 µM |
| FC(F)Cn1ncc2ncc(N3CCCC4(C3)CN(c3ccncc3C(F)(F)F)C4)nc21 [Compound 35, 6-[1-(2,2-difluoroethyl)-1H-pyrazolo[3,4-b]pyrazin-6-yl]-2-[3-(trifluoromethyl)pyridin-4-yl]-2,6-diazaspiro[3.5]nonane] | 10 to 50 µM |
| O=C(c1ccc2cc[nH]c2c1)N1CCCC2(CC(Oc3cnccc3C(F)(F)F)C2)C1 (centres unmarked) [Compound 40, 6-(1H-indole-6-carbonyl)-2-{[4-(trifluoromethyl)pyridin-3-yl]oxy}-6-azaspiro[3.5]nonane] | 50 to 100 µM |
| O=C(Cc1csc(-c2ccccc2)n1)N1CCCC2(C1)CN(c1ccccc1)C2 [Compound 57, 2-(2-phenyl-1,3-thiazol-4-yl)-1-{2-phenyl-2,6-diazaspiro[3.5]nonan-6-yl}ethan-1-one] | 10 to 50 µM |
| O=C(Cc1csc(-c2ccccc2)n1)N1CC2(CCCN(c3ccccc3)C2)C1 [Compound 58, 2-(2-phenyl-1,3-thiazol-4-yl)-1-{6-phenyl-2,6-diazaspiro[3.5]nonan-2-yl}ethan-1-one] | 10 to 50 µM |
| FC(F)Cn1ncc2ncc(N3CCC4(CC3)CN(c3cncc(C(F)(F)F)c3)C4)nc21 [Compound 69, 7-[1-(2,2-difluoroethyl)-1H-pyrazolo[3,4-b]pyrazin-6-yl]-2-[5-(trifluoromethyl)pyridin-3-yl]-2,7-diazaspiro[3.5]nonane] | 10 to 50 µM |
| O=C1N(c2cc(C(F)(F)F)ccn2)C(=O)C2(CCN(c3cnc4cnn(CC(F)F)c4n3)CC2)N1Cc1ccccc1 [Compound 70, 1-benzyl-8-(1-(2,2-difluoroethyl)-1H-pyrazolo[3,4-b]pyrazin-6-yl)-3-(4-(trifluoromethyl)pyridin-2-yl)-1,3,8-triazaspiro[4.5]decane-2,4-dione] | < 10 µM |
| CC1(C)C(=O)N(c2cc(C(F)(F)F)ccn2)CC12CCN(c1cnc3cnn(CC(F)F)c3n1)CC2 [Compound 73, 8-(1-(2,2-difluoroethyl)-1H-pyrazolo[3,4-b]pyrazin-6-yl)-4,4-dimethyl-2-(4-(trifluoromethyl)pyridin-2-yl)-2,8-diazaspiro[4.5]decan-3-one] | < 10 µM |
| CCC1C(=O)N(c2cc(C(F)(F)F)ccn2)CC12CCN(c1cnc3cnn(CC(F)F)c3n1)CC2 (centres unmarked) [Compound 75, 8-(1-(2,2-difluoroethyl)-1H-pyrazolo[3,4-b]pyrazin-6-yl)-4-ethyl-2-(4-(trifluoromethyl)pyridin-2-yl)-2,8-diazaspiro[4.5]decan-3-one] | < 10 µM |
| FC(F)Cn1ncc2ncc(N3CCC4(CC3)CN(c3cnccc3C(F)(F)F)C4)nc21 [Compound 76, 7-[1-(2,2-difluoroethyl)-1H-pyrazolo[3,4-b]pyrazin-6-yl]-2-[4-(trifluoromethyl)pyridin-3-yl]-2,7-diazaspiro[3.5]nonane] | < 10 µM |
| FC(F)Cn1ncc2ncc(N3CCC4(CCCC4COc4cccc(C(F)(F)F)n4)CC3)nc21 (centres unmarked) [Compound 80, 8-[1-(2,2-difluoroethyl)-1H-pyrazolo[3,4-b]pyrazin-6-yl]-1-({[6-(trifluoromethyl)pyridin-2-yl]oxy}methyl)-8-azaspiro[4.5]decane] | 10 to 50 µM |
| FC(F)Cn1ncc2ncc(N3CCC4(CCC(Oc5cccc(C(F)(F)F)n5)C4)CC3)nc21 (centres unmarked) [Compound 81, 8-[1-(2,2-difluoroethyl)-1H-pyrazolo[3,4-b]pyrazin-6-yl]-2-{[6-(trifluoromethyl)pyridin-2-yl]oxy}-8-azaspiro[4.5]decane] | 10 to 50 µM |
| FC(F)Cn1ncc2ncc(N3CCC4(CCC4COc4cccc(C(F)(F)F)n4)CC3)nc21 (centres unmarked) [Compound 82, 7-[1-(2,2-difluoroethyl)-1H-pyrazolo[3,4-b]pyrazin-6-yl]-1-({[6-(trifluoromethyl)pyridin-2-yl]oxy}methyl)-7-azaspiro[3.5]nonane] | 10 to 50 µM |

The next lines start with the values.

| EC50 | SMILES |
| --- | --- |
| 10 to 50 µM | FC(F)Cn1ncc2ncc(N3CCCC4(CCN(c5cccc(C(F)(F)F)n5)C4)C3)nc21 (centres unmarked) [Compound 34, 7-[1-(2,2-difluoroethyl)-1H-pyrazolo[3,4-b]pyrazin-6-yl]-2-[6-(trifluoromethyl)pyridin-2-yl]-2,7-diazaspiro[4.5]decane] |
| 10 to 50 µM | FC(F)Cn1ncc2ncc(N3CCC4(CCCN(c5cccc(C(F)(F)F)n5)C4)C3)nc21 (centres unmarked) [Compound 36, 2-[1-(2,2-difluoroethyl)-1H-pyrazolo[3,4-b]pyrazin-6-yl]-7-[6-(trifluoromethyl)pyridin-2-yl]-2,7-diazaspiro[4.5]decane] |
| 10 to 50 µM | FC(F)Cn1ncc2ncc(N3CCCC4(CN(c5ccc(C(F)(F)F)nc5)C4)C3)nc21 [Compound 37, 6-[1-(2,2-difluoroethyl)-1H-pyrazolo[3,4-b]pyrazin-6-yl]-2-[6-(trifluoromethyl)pyridin-3-yl]-2,6-diazaspiro[3.5]nonane] |
| 10 to 50 µM | FC(F)Cn1ncc2ncc(N3CCCC4(CN(c5cc(C(F)(F)F)ccn5)C4)C3)nc21 [Compound 38, 6-[1-(2,2-difluoroethyl)-1H-pyrazolo[3,4-b]pyrazin-6-yl]-2-[4-(trifluoromethyl)pyridin-2-yl]-2,6-diazaspiro[3.5]nonane] |
| 50 to 100 µM | FC(F)Cn1ncc2ncc(N3CC4(CCCN(c5ncccc5C(F)(F)F)C4)C3)nc21 [Compound 39, 2-[1-(2,2-difluoroethyl)-1H-pyrazolo[3,4-b]pyrazin-6-yl]-6-[3-(trifluoromethyl)pyridin-2-yl]-2,6-diazaspiro[3.5]nonane] |
| 50 to 100 µM | FC(F)Cn1ncc2ncc(N3CCCC4(CN(c5ccc(C(F)(F)F)cn5)C4)C3)nc21 [Compound 41, 6-[1-(2,2-difluoroethyl)-1H-pyrazolo[3,4-b]pyrazin-6-yl]-2-[5-(trifluoromethyl)pyridin-2-yl]-2,6-diazaspiro[3.5]nonane] |
| < 10 µM | FC(F)Cn1ncc2ncc(N3CCC4(CC3)CN(c3ccc(C(F)(F)F)nc3)C4)nc21 [Compound 66, 7-[1-(2,2-difluoroethyl)-1H-pyrazolo[3,4-b]pyrazin-6-yl]-2-[6-(trifluoromethyl)pyridin-3-yl]-2,7-diazaspiro[3.5]nonane] |
| < 10 µM | FC(F)Cn1ncc2ncc(N3CCC4(CC3)CN(c3ccnc(C(F)(F)F)c3)C4)nc21 [Compound 68, 7-[1-(2,2-difluoroethyl)-1H-pyrazolo[3,4-b]pyrazin-6-yl]-2-[2-(trifluoromethyl)pyridin-4-yl]-2,7-diazaspiro[3.5]nonane] |
| < 10 µM | FC(F)Cn1ncc2ncc(N3CCC4(CC3)CN(c3cccc(C(F)(F)F)n3)C4)nc21 [Compound 77, 7-[1-(2,2-difluoroethyl)-1H-pyrazolo[3,4-b]pyrazin-6-yl]-2-[6-(trifluoromethyl)pyridin-2-yl]-2,7-diazaspiro[3.5]nonane] |
| 10 to 50 µM | FC(F)Cn1ncc2ncc(N3CCC4(CC3)CN(c3ccc(C(F)(F)F)cn3)C4)nc21 [Compound 78, 7-[1-(2,2-difluoroethyl)-1H-pyrazolo[3,4-b]pyrazin-6-yl]-2-[5-(trifluoromethyl)pyridin-2-yl]-2,7-diazaspiro[3.5]nonane] |
| < 10 µM | FC(F)Cn1ncc2ncc(N3CCC4(CC3)CN(c3ncccc3C(F)(F)F)C4)nc21 [Compound 79, 7-[1-(2,2-difluoroethyl)-1H-pyrazolo[3,4-b]pyrazin-6-yl]-2-[3-(trifluoromethyl)pyridin-2-yl]-2,7-diazaspiro[3.5]nonane] |

From patent publication US20250034170A1, “SMALL MOLECULE MODULATORS OF GLUCOCEREBROSIDASE ACTIVITY AND USES THEREOF” (Vanqua Bio, Inc., priority 2021, published 2025)
